Results published in ChEMBL document CHEMBL4118147, “Structure-activity relationship of clovamide and its related compounds for the inhibition of amyloid β aggregation” (Bioorg Med Chem, 2018).
Activity calls are given as the source filed them. The rule behind the calls is not given here.

Columns and labels:
[1] = biological target: T1, Amyloid-beta precursor protein (Homo sapiens, UniProt P05067); test: Inhibition of amyloid beta (1 to 42) (unknown origin) fibril formation at 100 uM after 24 hrs by silicotungstic acid staining based transmission electron microscopic analysis
[2] = biological target: T1, Amyloid-beta precursor protein; test: Inhibition of amyloid beta (1 to 42) (unknown origin) aggregation after 24 hrs by thioflavin T fluorescence assay
[3] = biological target: T1, Amyloid-beta precursor protein; test: Inhibition of amyloid beta (1 to 42) (unknown origin) fibril formation after 24 hrs by silicotungstic acid staining based transmission electron microscopic analysis

T1 sequence (P05067 whole entry): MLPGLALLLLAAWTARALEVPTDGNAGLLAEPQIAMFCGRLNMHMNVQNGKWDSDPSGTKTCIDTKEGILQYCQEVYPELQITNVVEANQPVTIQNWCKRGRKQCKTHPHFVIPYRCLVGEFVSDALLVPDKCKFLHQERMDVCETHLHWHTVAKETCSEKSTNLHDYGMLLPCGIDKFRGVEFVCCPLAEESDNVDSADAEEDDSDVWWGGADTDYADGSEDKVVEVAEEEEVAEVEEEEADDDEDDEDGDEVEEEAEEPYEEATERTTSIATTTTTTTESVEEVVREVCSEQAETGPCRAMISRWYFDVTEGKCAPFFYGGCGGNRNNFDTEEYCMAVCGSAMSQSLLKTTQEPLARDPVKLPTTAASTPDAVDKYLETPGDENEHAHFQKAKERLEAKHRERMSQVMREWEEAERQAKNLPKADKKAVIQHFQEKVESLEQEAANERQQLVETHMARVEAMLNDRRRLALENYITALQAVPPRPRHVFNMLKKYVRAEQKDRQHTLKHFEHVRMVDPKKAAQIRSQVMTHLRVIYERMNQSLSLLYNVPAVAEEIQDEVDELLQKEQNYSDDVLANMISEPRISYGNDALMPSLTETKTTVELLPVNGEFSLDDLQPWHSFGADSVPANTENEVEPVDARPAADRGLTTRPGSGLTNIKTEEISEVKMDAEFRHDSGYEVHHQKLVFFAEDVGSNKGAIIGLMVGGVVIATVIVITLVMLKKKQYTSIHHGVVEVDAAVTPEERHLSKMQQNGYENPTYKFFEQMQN

Row | inhibition [1] | IC50 [2] [µM] | inhibition [3] | inhibition [2] | Structure (SMILES)
1 | inactive | > 100 |  |  | O=C(/C=C/c1ccccc1)N[C@@H](Cc1ccc(O)cc1)C(=O)O
2 | inactive | > 100 |  |  | O=C(/C=C/c1ccc(O)cc1)N[C@@H](Cc1ccc(O)c(O)c1)C(=O)O
3 |  | 87.8 | Dose-dependent effect | Dose-dependent effect | O=C(/C=C/c1ccc(O)c(O)c1)N[C@@H](Cc1ccc(O)cc1)C(=O)O
4 |  | 4.9 | Dose-dependent effect | Dose-dependent effect | COC(=O)[C@H](Cc1ccc(O)c(O)c1)NC(=O)/C=C/c1ccc(O)c(O)c1 [N-CAFFEOYL-DOPA METHYL ESTER]
5 |  | 8.7 | Dose-dependent effect | Dose-dependent effect | O=C(CCc1ccc(O)c(O)c1)N[C@@H](Cc1ccc(O)c(O)c1)C(=O)O
6 | inactive | > 100 |  |  | COC(=O)[C@H](Cc1ccc(OC)c(OC)c1)NC(=O)/C=C/c1ccc(OC)c(OC)c1
7 |  | 5.7 | Dose-dependent effect | Dose-dependent effect | O=C(/C=C/c1ccc(O)c(O)c1)N[C@@H](Cc1ccc(O)c(O)c1)C(=O)O
8 | inactive | > 100 |  |  | O=C(/C=C/c1ccc(O)cc1)N[C@@H](Cc1ccccc1)C(=O)O
9 | inactive | > 100 |  |  | O=C(/C=C/c1ccccc1)N[C@@H](Cc1ccccc1)C(=O)O
10 |  | 1.6 | Dose-dependent effect | Dose-dependent effect | O=C(/C=C/c1ccc(O)c(O)c1)N[C@H](Cc1ccc(O)c(O)c1)C(=O)O
11 |  | 72.9 | Dose-dependent effect | Dose-dependent effect | O=C(/C=C/c1ccc(O)c(O)c1)N[C@@H](Cc1ccccc1)C(=O)O
12 |  | 22.7 | Dose-dependent effect | Dose-dependent effect | O=C(/C=C/c1ccccc1)N[C@@H](Cc1ccc(O)c(O)c1)C(=O)O
13 | inactive | > 100 |  |  | O=C(/C=C/c1ccc(O)cc1)N[C@@H](Cc1ccc(O)cc1)C(=O)O
